Tests used:
Assay in all cases: two-electrode voltage clamp, Xenopus oocytes
Dm-DopC1 [1] = test system: T1, Dm-DopC1; format: cell-based, Daphnia magna; conditions: antagonist against 50 µM dopamine; ND96 pH 7.5, -60 mV; 4-parameter fit, bottom = 0
T1 construct: full-length homomeric pentamer expressed from cRNA in Xenopus laevis oocytes; predicted signal peptide residues 1-26

Dm-DopC1 [2] = molecular target: T2, Dm-DopC1 (Daphnia magna, UniProt Z9WC39ES65, D188N); format: cell-based
T2 construct: full-length homomeric pentamer expressed from cRNA in Xenopus laevis oocytes; predicted signal peptide residues 1-26

Dm-DopC1 [3] = molecular target: T3, Dm-DopC1 (Daphnia magna, UniProt Z9WC39ES65, N92T); format: cell-based
T3 construct: full-length homomeric pentamer expressed from cRNA in Xenopus laevis oocytes; predicted signal peptide residues 1-26
Description: two-electrode voltage clamp, Xenopus oocytes on Dm-DopC1

T3 sequence (Z9WC39ES65 27-520 N92T limits assumed): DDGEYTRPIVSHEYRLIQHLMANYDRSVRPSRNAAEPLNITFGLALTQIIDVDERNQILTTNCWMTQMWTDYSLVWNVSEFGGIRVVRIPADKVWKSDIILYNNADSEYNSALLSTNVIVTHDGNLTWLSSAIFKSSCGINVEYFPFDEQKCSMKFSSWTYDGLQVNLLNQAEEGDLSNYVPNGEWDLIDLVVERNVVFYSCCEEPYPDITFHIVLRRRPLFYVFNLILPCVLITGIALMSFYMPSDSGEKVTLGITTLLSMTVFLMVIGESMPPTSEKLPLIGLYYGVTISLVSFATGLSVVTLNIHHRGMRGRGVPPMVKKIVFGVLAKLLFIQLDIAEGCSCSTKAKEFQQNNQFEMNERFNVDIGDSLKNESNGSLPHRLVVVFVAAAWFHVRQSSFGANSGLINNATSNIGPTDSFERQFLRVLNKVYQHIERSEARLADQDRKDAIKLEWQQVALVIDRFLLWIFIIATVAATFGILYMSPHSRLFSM
T2 sequence (Z9WC39ES65 27-520 D188N limits assumed): as the sequence (Z9WC39ES65 27-520 N92T limits assumed) above, with T66N, D162N counted along it

Compound	IC50 (Dm-DopC1 [1]) [µM]	further results
CN1CCc2cccc3c2[C@H]1Cc1ccc(O)c(O)c1-3 [apomorphine]	6	
NCCc1ccc(O)c(O)c1 [dopamine]		EC50 (Dm-DopC1 [2]): > 9000 µM
CN1CCC[C@H]1c1cccnc1 [nicotine]	109	
NC[C@H](O)c1ccc(O)c(O)c1 [norepinephrine]		EC50 (Dm-DopC1 [3]): 440 ± 114 µM
COc1cc2c3cc1Oc1cc(ccc1O)C[C@@H]1c4c(cc(OC)c(O)c4Oc4ccc(cc4)C[C@@H]3N(C)CC2)CC[N+]1(C)C [tubocurarine]	0.9	
